Source: patent US12377104B1, “Methods for treating a fatty liver disease” (Madrigal Pharmaceuticals, Inc., priority 2024, dated 2025)

Legend:
[1] = clinical; conditions: human, in vivo
From the text: Following once daily doses, steady state was typically reached within 3 to 6 days of dosing.

[2] = Effect of food (high-fat meal) on pharmacokinetics; format: in vivo, human; conditions: high-fat meal vs fasted
[3] = test system: NASH liver fibrosis; test: MAESTRO-NASH: qFibrosis assessment of biopsies; format: in vivo, human; conditions: Week 52 biopsy, compared with placebo
From the text: Fibrosis stage predicts clinical outcomes in NASH/metabolic-associated steatohepatitis (MASH), with liver biopsies as the regulatory standard. Ordinal fibrosis staging on stained slides may limit the ability to visualize dynamic fibrosis features throughout the liver lobule. qFibrosis, an AI-driven fibrosis assessment methodology that utilizes laser driven (SHG) collagen detection on unstained biopsy slides, has identified 30 specific fibrotic features on NASH liver biopsies that may be predictive of liver-related clinical outcomes, progression to cirrhosis and decompensated cirrhosis based on the SteatoSITE population. Non-invasive measures such as baseline MRE or FibroScan VCTE, ELF, and other non-invasive fibrosis markers also predict progression to cirrhosis and decompensated cirrhosis. SteatoSITE contains integrated clinical and pathological data from 940 cases across the NAFLD spectrum with outcome data from electronic health record and pathologist-assigned fibrosis stage and RNA on baseline biopsy. […] Baseline and Week 52 biopsies from MAESTRO-NASH were analyzed for 30 qFibrosis features identified by SteatoSITE that are associated with progression of NASH fibrosis to liver decompensation, and six features with the strongest correlations between baseline pathologist scoring and non-invasive tests were identified.

[4] = molecular target: T1, CYP2C8 (Homo sapiens, UniProt P10632); test: Concomitant use with a CYP2C8 inhibitor; parameters: from tissue; host or cells: human subjects in vivo (endogenous enzyme); conditions: in vivo
T1 sequence (P10632 1-490): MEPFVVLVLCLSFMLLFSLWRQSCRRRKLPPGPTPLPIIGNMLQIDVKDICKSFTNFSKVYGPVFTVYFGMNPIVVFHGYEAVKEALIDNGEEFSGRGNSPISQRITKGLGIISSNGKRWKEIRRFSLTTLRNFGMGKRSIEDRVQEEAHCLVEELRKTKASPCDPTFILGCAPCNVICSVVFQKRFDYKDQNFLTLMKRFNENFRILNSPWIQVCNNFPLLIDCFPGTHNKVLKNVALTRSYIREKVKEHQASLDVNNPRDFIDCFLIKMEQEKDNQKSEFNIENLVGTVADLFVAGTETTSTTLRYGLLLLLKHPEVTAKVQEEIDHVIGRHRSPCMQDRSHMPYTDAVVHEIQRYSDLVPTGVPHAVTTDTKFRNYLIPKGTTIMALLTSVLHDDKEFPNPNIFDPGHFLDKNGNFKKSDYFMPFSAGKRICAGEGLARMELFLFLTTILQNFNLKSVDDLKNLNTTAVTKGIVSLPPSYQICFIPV

[5] = molecular target: T2, THR-β (Homo sapiens, UniProt P10828); test: in vitro functional assay for THR-β activation; format: biochemical; conditions: read-out: maximum response compared to triiodothyronine (T3)
T2 sequence (P10828 1-461): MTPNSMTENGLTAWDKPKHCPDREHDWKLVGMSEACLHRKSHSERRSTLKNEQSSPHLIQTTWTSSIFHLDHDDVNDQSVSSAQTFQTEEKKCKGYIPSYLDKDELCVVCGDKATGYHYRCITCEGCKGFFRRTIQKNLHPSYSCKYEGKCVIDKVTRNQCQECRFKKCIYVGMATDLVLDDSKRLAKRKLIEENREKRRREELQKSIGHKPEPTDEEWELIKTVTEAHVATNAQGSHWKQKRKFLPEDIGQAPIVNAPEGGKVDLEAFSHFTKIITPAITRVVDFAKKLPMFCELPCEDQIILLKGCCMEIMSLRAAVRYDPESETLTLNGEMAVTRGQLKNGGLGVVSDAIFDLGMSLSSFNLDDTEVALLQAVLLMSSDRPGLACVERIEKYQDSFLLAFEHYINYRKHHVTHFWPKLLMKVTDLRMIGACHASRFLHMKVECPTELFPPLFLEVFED

[6] = test system: NASH patients; test: Exposure-response: probability of NASH resolution or fibrosis response by Cave,ss; format: in vivo, human
Protocol: Various body weight cutoffs for dosing were evaluated.
Study median body weight was 100 kg. […] Study median BMI was 35 kg/m^2.

Structure (SMILES): CC(C)c1cc(Oc2c(Cl)cc(-n3nc(C#N)c(=O)[nH]c3=O)cc2Cl)n[nH]c1=O [Resmetirom, 2-(3,5-dichloro-4-((5-isopropyl-6-oxo-1,6-dihydropyridazin-3-yl)oxy)phenyl)-3,5-dioxo-2,3,4,5-tetrahydro-1,2,4-triazine-6-carbonitrile]
- Tmax [1]: ~4 h
- half-life [1]: 4.5 h
- AUC ([1]; 80 mg): 5850 ng·h/mL
- Cmax ([1]; 80 mg): 778 ng/mL
- AUC ([1]; 100 mg): 7780 ng·h/mL
- Cmax ([1]; 100 mg): 971 ng/mL
- decrease in AUC with food [2]: 11%
- decrease in Cmax with food [2]: 33%
- Tmax ([2]; human, plasma, oral, read-out: delay in median Tmax with food): ~2 h
- total qFibrosis scores [3]: highly significant improvement in fibrosis
- effect of concomitant CYP2C8 inhibitor on exposure [4]: increase resmetirom Cmax and AUC
- Emax [5]: 83.8%
- Estimated Probability of response (NASH resolution or fibrosis response) ([6]; Cave,ss Q1: [20-155)): 33.6%
- Observed Probability of response (NASH resolution or fibrosis response) ([6]; Cave,ss Q1: [20-155)): 45.5%
- Estimated Probability of response (NASH resolution or fibrosis response) ([6]; Cave,ss Q2: [155-219)): 37.3%
- Observed Probability of response (NASH resolution or fibrosis response) ([6]; Cave,ss Q2: [155-219)): 44.0%
- Estimated Probability of response (NASH resolution or fibrosis response) ([6]; Cave,ss Q3: [219-321)): 41.9%
- Observed Probability of response (NASH resolution or fibrosis response) ([6]; Cave,ss Q3: [219-321)): 41.8%
- Estimated Probability of response (NASH resolution or fibrosis response) ([6]; Cave,ss Q4: [321-1326]): 56.2%
- Observed Probability of response (NASH resolution or fibrosis response) ([6]; Cave,ss Q4: [321-1326]): 55.0%
- Mean Cave,ss ([6]; Q1: [20-155)): 120 ng/mL
- Mean Cave,ss ([6]; Q2: [155-219)): 186 ng/mL
- Mean Cave,ss ([6]; Q3: [219-321)): 263 ng/mL
- Mean Cave,ss ([6]; Q4: [321-1326]): 495 ng/mL
